Source: ChEMBL document CHEMBL4393720, “Design, synthesis and biological evaluation of bromophenol-thiazolylhydrazone hybrids inhibiting the interaction of translation initiation factors eIF4E/eIF4G as multifunctional agents for cancer treatment” (Eur J Med Chem, 2019)
Active and inactive are the calls of the source. The rule behind the calls is not given here.

Assays:
[1] = Total plasma clearance in male Sprague-Dawley rat at 2 mg/kg, iv measured up to 24 hrs by LC/MS-MS analysis; assay type: ADME, organism-based
A549 [2] = assay: In vivo inhibition of PI3K/Akt/mTOR signalling pathway in human A549 cells xenografted in athymic nude mouse assessed as decrease in phosphorylation of Akt at 25 to 50 mg/kg, ip administered once daily for 21 days by Western blot analysis; assay type: functional, organism-based
[3] = Subacute toxicity in SPF Kunming mouse assessed as liver morphological changes at 2000 mg/kg, po administered once a day for 14 days by H and E staining based microscopic analysis; assay type: organism-based; settings: in vivo, 336 h
[4] = MRT in male Sprague-Dawley rat at 10 mg/kg, po measured up to 24 hrs by LC/MS-MS analysis; assay type: ADME, organism-based; settings: in vivo
Caco-2 = assay: Antiproliferative activity against human Caco2 cells assessed as inhibition of cell growth incubated for 48 hrs by MTT assay; assay type: functional, cell-based; settings: Caco-2, 48 h
[5] = Oral bioavailability in female Sprague-Dawley rat at 10 mg/kg measured up to 24 hrs by LC/MS-MS analysis; assay type: ADME, organism-based; settings: in vivo
A549 [6] = assay: Induction of apoptosis in human A549 cells assessed as decrease in Bcl2 level at 1 to 5 uM incubated for 48 hrs by Western blot analysis; assay type: functional, cell-based
[7] = Subacute toxicity in SPF Kunming mouse assessed as behavioural abnormalities at 2000 mg/kg, po administered once a day for 14 days; assay type: organism-based; settings: in vivo, 336 h
[8] = Acute toxicity in SPF Kunming mouse assessed as body weight at 500 mg/kg, po administered as single dose measured at day 14 (reference value: 34.7g); assay type: organism-based; settings: in vivo
[9] = AUC (0 to 24 hrs) in female Sprague-Dawley rat at 2 mg/kg, iv measured up to 24 hrs by LC/MS-MS analysis; assay type: ADME, organism-based; set-up: time < 24 hr, dose 2 mg/kg, route intravenous; settings: in vivo
A549 [10] = assay: In vivo inhibition of PI3K/Akt/mTOR in human A549 cells xenografted in athymic nude mouse assessed as decrease in phosphorylation of 4EBP1 at 25 to 50 mg/kg, ip administered once daily for 21 days by Western blot analysis; assay type: functional, organism-based
A549 [11] = assay: Inhibition of eIF4E/eIF4G interaction in human A549 cells incubated for 48 hrs by m7GTP pull down assay; assay type: cell-based
[12] = Toxicity in athymic nude mouse xenografted with human A549 cells assessed as effect on liver morphological changes at 25 to 50 mg/kg, ip administered once daily for 21 days by H and E staining based assay; assay type: organism-based; settings: in vivo, 504 h
[13] = Volume of distribution in Sprague-Dawley rat at 2 mg/kg, iv measured up to 24 hrs by LC/MS-MS analysis; assay type: ADME, organism-based; settings: in vivo
A549 [14] = assay: Antitumor activity against human A549 cells xenografted in athymic nude mouse assessed as decrease in tumor growth at 50 mg/kg, ip administered once daily for 21 days; assay type: functional; settings: 504 h
[15] = Total plasma clearance in female Sprague-Dawley rat at 2 mg/kg, iv measured up to 24 hrs by LC/MS-MS analysis; assay type: ADME, organism-based
[16] = Subacute toxicity in SPF Kunming mouse assessed as heart morphological changes at 2000 mg/kg, po administered once a day for 14 days by H and E staining based microscopic analysis; assay type: organism-based; settings: in vivo, 336 h
A549 [17] = assay: Induction of apoptosis in human A549 cells assessed as increase in Bax level at 1 to 5 uM incubated for 48 hrs by Western blot analysis; assay type: functional, cell-based
[18] = Cmax in female Sprague-Dawley rat at 10 mg/kg, po measured up to 24 hrs by LC/MS-MS analysis; assay type: ADME, organism-based; set-up: dose 10 mg/kg, route oral; settings: in vivo
[19] = Half life in male Sprague-Dawley rat at 10 mg/kg, po measured up to 24 hrs by LC/MS-MS analysis; assay type: ADME, organism-based; settings: in vivo
A549 [20] = assay: Induction of ROS generation in human A549 cells at 1 to 5 uM incubated for 48 hrs by DCFH-DA staining based FACS analysis; assay type: functional, cell-based
A549 [21] = assay: In vivo inhibition of PI3K/Akt/mTOR signalling pathway in human A549 cells xenografted in athymic nude mouse assessed as decrease in phosphorylation of PI3K at 25 to 50 mg/kg, ip administered once daily for 21 days by Western blot analysis; assay type: functional, organism-based
[22] = Volume of distribution in steady state in female Sprague-Dawley rat at 2 mg/kg, iv measured up to 24 hrs by LC/MS-MS analysis; assay type: ADME, organism-based; settings: in vivo, read-out: Vdss
[23] = Half life in male Sprague-Dawley rat at 2 mg/kg, iv measured up to 24 hrs by LC/MS-MS analysis; assay type: ADME, organism-based; settings: in vivo
[24] = AUC (0 to 24 hrs) in female Sprague-Dawley rat at 10 mg/kg, po measured up to 24 hrs by LC/MS-MS analysis; assay type: ADME, organism-based; set-up: time < 24 hr, dose 10 mg/kg, route oral; settings: in vivo
A549 [25] = assay: Induction of autophagy in human A549 cells assessed as change in ULK1 expression at 1 to 5 uM incubated for 48 hrs by Western blot analysis; assay type: functional, cell-based
[26] = Subacute toxicity in SPF Kunming mouse assessed as kidney morphological changes at 2000 mg/kg, po administered once a day for 14 days by H and E staining based microscopic analysis; assay type: organism-based; settings: in vivo, 336 h
[27] = AUC (0 to 24 hrs) in male Sprague-Dawley rat at 10 mg/kg, po measured up to 24 hrs by LC/MS-MS analysis; assay type: ADME, organism-based; set-up: time < 24 hr, dose 10 mg/kg, route oral; settings: in vivo
[28] = Inhibition of PI3K/Akt/mTOR in human A549 cells assessed as increase in eIF4E/4EBP1 interaction incubated for 48 hrs by m7GTP pull down assay; assay type: cell-based
A549 [29] = assay: In vivo inhibition of eIF4E in human A549 cells xenografted in athymic nude mouse assessed as decrease in phosphorylation of eIF4E at 25 to 50 mg/kg, ip administered once daily for 21 days by immunocytochemistry; assay type: functional, organism-based
[30] = Half life in female Sprague-Dawley rat at 10 mg/kg, po measured up to 24 hrs by LC/MS-MS analysis; assay type: ADME, organism-based; settings: in vivo
[31] = Subacute toxicity in SPF Kunming mouse assessed as body weight at 2000 mg/kg, po administered once a day for 7 days (reference value: 28.4g); assay type: organism-based; settings: in vivo, 168 h
A549 [32] = assay: Inhibition of eIF4E/eIF4G interaction in human A549 cells at 2.5 uM incubated for 24 hrs by proximity ligation assay; assay type: cell-based
HepG2 = assay: Antiproliferative activity against human HepG2 cells assessed as inhibition of cell growth incubated for 48 hrs by MTT assay; assay type: functional, cell-based; settings: HepG2, 48 h
A549 [33] = assay: Induction of autophagy in human A549 cells assessed as change in LC3 expression at 1 to 5 uM incubated for 48 hrs by Western blot analysis; assay type: functional, cell-based
[34] = target: Eukaryotic translation initiation factor 4E (Homo sapiens) (UniProt P06730); assay: Inhibition of eIF4E phosphorylation in human A549 cells assessed as decrease in c-myc expression at 1 to 5 uM incubated for 48 hrs by western blot analysis; assay type: cell-based
Eukaryotic translation initiation factor 4E (Homo sapiens), sequence (P06730 whole entry): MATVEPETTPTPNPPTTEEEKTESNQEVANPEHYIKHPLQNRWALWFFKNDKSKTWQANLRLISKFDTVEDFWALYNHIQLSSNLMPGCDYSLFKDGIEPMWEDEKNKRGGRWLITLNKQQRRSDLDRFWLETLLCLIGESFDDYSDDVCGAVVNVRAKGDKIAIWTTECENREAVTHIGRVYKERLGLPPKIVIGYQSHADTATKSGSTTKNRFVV

A549 [35] = assay: Antitumor activity against human A549 cells xenografted in athymic nude mouse assessed as decrease in tumor growth at 25 mg/kg, ip administered once daily for 21 days; assay type: functional; settings: 504 h
[36] = target: Eukaryotic translation initiation factor 4E (Homo sapiens) (UniProt P06730); assay: Inhibition of eIF4E phosphorylation in human A549 cells incubated for 48 hrs by immunofluorescence method; assay type: cell-based

Fc1ccc(/C=N/Nc2nc(-c3ccc(C(F)(F)F)cc3)cs2)cc1F
clearance [1]: 0.5 mL/min/kg | inhibition (A549 [2]): Active | Activity [3]: Non-Toxic | MRT [4]: 1.83 h | IC50 (Caco-2): 14.6 µM | bioavailability [5]: 31% | Activity (A549 [6]): Active | Activity [7]: Non-Toxic | Activity [8]: 33.3 g | AUC(0-t) at 24 h [9]: 133 µM·h | inhibition (A549 [10]): Active | inhibition (A549 [11]): Active | Activity [12]: Non-Toxic | Vd [13]: 0.67 L/kg | inhibition in vivo at 50 mg/kg (A549 [14]): 75% | clearance [15]: 0.667 mL/min/kg | Activity [16]: Non-Toxic | Activity (A549 [17]): Active | Cmax [18]: 960 nM | half-life [19]: 1.27 h | Activity (A549 [20]): Active | inhibition (A549 [21]): Active | Vd [22]: 0.19 L/kg | half-life [23]: 2.83 h | AUC(0-t) at 24 h [24]: 8.25 µM·h | Activity (A549 [25]): Active | Activity [26]: Non-Toxic | AUC(0-t) at 24 h [27]: 5.34 µM·h | Activity [28]: Active | inhibition (A549 [29]): Active | half-life [30]: 1.12 h | Activity [31]: 28 g | inhibition (A549 [32]): Active | IC50 (HepG2): 14.5 µM | Activity (A549 [33]): Active | inhibition [34]: Active | inhibition in vivo at 25 mg/kg (A549 [35]): 62% | inhibition [36]: Active
